Where “and” joins values, the source holds several entries; their conditions need not be identical. Identical values can stand only once.
Assays:
[1] = test system: ovalbumin (OVA)-induced asthma; experiment: Ovalbumin (OVA)-induced asthma in mice, mast cell-independent model; assay type: in vivo
Protocol: Mice were sensitized by i.p. injection of OVA emulsified in adjuvant (Day 1 and 14). Groups of mice were each challenged by intranasal injection of OVA (Day 25, 26, 27). Compound 17 was administered by i.p. injection (10 and 30 mg/kg) before each intranasal challenge (Day 25, 26, 27).

[2] = test system: Ovalbumin-induced Allergic Rhinitis; experiment: Ovalbumin-induced allergic rhinitis in mice, prophylactic effect; assay type: in vivo, BALB/c mice
Protocol: BALB/c mice were sensitized by i.p. injection of OVA emulsified in alum (Day 0, 5, 14, 21). Groups of mice were each challenged by intranasal injection of OVA (Day 22-35, 38). Control group mice received an equal volume of vehicle by intranasal injection. Nasal symptoms (number of sneezes and episodes of nose rubbing by the front paws) were counted during the 5 min period following the last intranasal injection (Day 38). […] The histamine receptor antagonist […]® was used as a positive control.

[3] = test system: ovalbumin (OVA)-induced asthma; experiment: Ovalbumin (OVA)-induced asthma in mice, mast cell-dependent model; assay type: in vivo; settings: 30 mg/kg i.p., Day 42-46
Protocol: Mice were sensitized by i.p. injection with OVA in saline (10 μg) on alternate days (Day 0, 2, 4, 6, 8, 10, 12). Groups of mice were each challenged by intranasal injection of OVA (Day 40, 43, 46). Compound 17 was administered by i.p. injection (30 mg/kg) on consecutive days (Day 42, 43, 44, 45, 46). Compared to vehicle, leukocyte influx was inhibited by 95% and 55% (in two separate assays), LTC4 influx was inhibited by 90% and IL-4 influx was inhibited by 85%.

[4] = test system: Ovalbumin-induced Allergic Rhinitis; experiment: Ovalbumin-induced allergic rhinitis in mice, therapeutic effect; assay type: in vivo, BALB/c mice; settings: intranasal 10 μg/nostril four times per day, Days 29-38
Protocol: BALB/c mice were sensitized by i.p. injection of OVA emulsified in alum (Day 0, 5, 14, 21). Groups of mice were each challenged by intranasal injection of OVA (Day 22-35, 38).
Control group mice received an equal volume of vehicle by intranasal injection. Nasal symptoms (number of sneezes and episodes of nose rubbing by the front paws) were counted during the 5 min period following the last intranasal injection (Day 38).
The anti-histamine Pyralimine and the mast cell-stabilizing agent Ketotifen were used as positive controls.

C[N+](C)(Cc1ccc(NC(=O)c2ccc(Cl)c(Cl)c2)cc1)C1CCOCC1.[Cl-] [Cpd 17, [4-(3,4-dichloro-benzoylamino)-benzyl]-dimethyl-(tetrahydro-pyran-4-yl)-ammonium chloride]
inhibition of leukocyte influx compared to vehicle ([1]; 10 mg/kg i.p. before each intranasal challenge): 40% | inhibition of leukocyte influx compared to vehicle ([1]; 30 mg/kg i.p. before each intranasal challenge): 70% | inhibition of nasal symptoms (rubbing) ([2]; intranasal 10 μg/nostril): 57% | inhibition of nasal symptoms (sneezing) ([2]; intranasal 10 μg/nostril): 64% | inhibition of nasal symptoms (rubbing) ([2]; intranasal 30 μg/nostril): 71% | inhibition of nasal symptoms (sneezing) ([2]; intranasal 30 μg/nostril): 82% | inhibition of IL-4 influx compared to vehicle [3]: 85% | inhibition of LTC4 influx compared to vehicle [3]: 90% | inhibition of leukocyte influx compared to vehicle ([3]; two separate assays): 95% and 55% | inhibition of nasal symptoms (rubbing) [4]: 42% | inhibition of nasal symptoms (sneezing) [4]: 0%

Source: patent US7799824B2, “Quaternary salt CCR2 antagonists” (OraPharma, Inc., priority 2004, dated 2010)
